From EP0972447B1, “Parasitic and saprophagous mite control on beneficial insects” (BASF AKTIENGESELLSCHAFT, priority 1998, dated 2000)

What was measured:
[1] = tested on: Varroa jacobsoni (Varroa mites); assay: Efficacy against Varroa jacobsoni on topically treated honeybees (Example 1, hives 70% infested): parasite mortality; format: in vivo; conditions: 120 h, 5 days at 31°C, read-out: % Mortality Parasites
Procedure: (§1) In this evaluation, honeybees (Apis mellifera) taken from hives which are 70% infested with Varroa jacobsoni (Varroa mites) are chilled to immobilize the bees. A 1µl droplet of an acetone solution of test compound is applied to the dorsal abdomen of each bee. Control bees receive a 1µl droplet of acetone. A total of 50-52 bees are treated for each dose rate tested. Treatment dose rates are based upon the LD50 (dose rate required to obtain 50% mortality of healthy uninfected bees) of each test compound and are set at 10% of the LD50 and subsequent 10-fold dilutions thereof. The treated bees are placed in an incubator at 31°C in the dark and fed 50% sugar water ad libitum for 5 days. After incubation, the bees are examined for mortality and mite infestation.

[2] = tested on: honeybees (Apis mellifera); assay: Mortality of the topically treated host honeybees (Example 1); format: in vivo; conditions: 5 days at 31°C
Procedure: as §1

Varroa jacobsoni = assay: Efficacy against Varroa jacobsoni on topically treated honeybees (Example 2, bees 90% infected): mite mortality; format: in vivo; conditions: 120 h, read-out: % Mortality Mites
Procedure: as §1
(§2) Using essentially the same procedure described in Example 1, but employing honeybees which are 90% infected with Varroa jacobsoni, the following results are obtained and shown in Table II below.

honeybees = assay: Mortality of the topically treated host honeybees (Example 2); format: in vivo, Apis mellifera; conditions: bees 90% infected
Procedure: as §1, §2

[3] = 0.002 µg/bee topical in acetone

`CN(c1ccc(F)c(C(F)(F)F)c1)c1cc(Oc2ccc(F)c(C(F)(F)F)c2)ncn1` [A] showed a mortality at 0.08 µg/bee ([1]; 0.08 µg/bee topical in acetone) of 75%, a mortality at 0.8 µg/bee ([1]; 0.8 µg/bee topical in acetone) of 100% and a mortality at 8 µg/bee ([1]; 8:0 µg/bee topical in acetone) of 92%. For the same compound, the “% Mortality Bees” value ([2]; 0.08 µg/bee topical in acetone) was 21%, the “% Mortality Bees” value ([2]; 0.8 µg/bee topical in acetone) was 13% and the “% Mortality Bees” value ([2]; 8:0 µg/bee topical in acetone) was 21%.

Work on `Fc1ccc(Oc2cc(Oc3ccc(F)c(C(F)(F)F)c3)ncn2)cc1C(F)(F)F` [B] yielded a mortality at 0.002 µg/bee [1, 3] of 6%, a mortality at 0.02 µg/bee ([1]; 0.02 µg/bee topical in acetone) of 36% and a mortality at 0.2 µg/bee ([1]; 0.2 µg/bee topical in acetone) of 88%. The “% Mortality Bees” value [2, 3] was 16%, the “% Mortality Bees” value ([2]; 0.02 µg/bee topical in acetone) was 14% and the “% Mortality Bees” value ([2]; 0.2 µg/bee topical in acetone) was 10%.

With `CN(c1ccc(F)c(C(F)(F)F)c1)c1cc(Oc2ccc(F)c(C(F)(F)F)c2)ncn1` [C] the mortality at 0.01 µg/bee (Varroa jacobsoni; 0.01 µg/bee topical) was 8%, the mortality at 0.1 µg/bee (Varroa jacobsoni; 0.10 µg/bee topical) was 80% and the mortality at 1 µg/bee (Varroa jacobsoni; 1.00 µg/bee topical) was 91%. For the same compound, the “% Mortality Bees” value (honeybees; 0.01 µg/bee topical) was 13%, the “% Mortality Bees” value (honeybees; 0.10 µg/bee topical) was 12% and the “% Mortality Bees” value (honeybees; 1.00 µg/bee topical) was 16%.
